≈ marks a conversion by molar mass, not a printed value.
Conditions: buffer; pH 7.4; 200.0 µM

SMILES | solubility kinetic [µg/mL]
O=c1c2ccc(Cl)cc2[nH]c(=S)n1-c1cccnc1 | 10.8 (≈ 37.3 µM)
COc1cccc(OC)c1C(=O)Nc1cccc(S(=O)(=O)Nc2ccccc2Cl)c1 | 47.1 (≈ 105 µM)
Cc1ccc(SCC(=O)O/N=C(\N)c2ccncc2)cc1 | 29.4 (≈ 97.6 µM)
Cc1ccc(CN2C(=O)CSC2c2ccc(F)cc2)cc1 (centres undefined) | 16.8 (≈ 55.7 µM)
COc1ccccc1CNC(=O)COc1ccc(C)cc1 | 26.2 (≈ 91.8 µM)
O=C(CCCCCCC(=O)NCc1ccccc1)NCc1ccccc1 | 1.4 (≈ 3.97 µM)
CN(C(=S)Nc1ccc(Oc2ccccc2)cc1)c1ccc(O)cc1 | > 52.6
O=C(O)CCC(=O)N1CCN(Cc2ccc3c(c2)OCO3)CC1 | 28.1 (≈ 87.7 µM)
CSS(=O)(=O)c1cccc2cccnc12 | > 35.9
C=CCN1C(=O)C(Cc2ccccc2Cl)SC1=Nc1ccc(C(=O)O)cc1 (centres undefined) | > 60.1
COc1cc(C)ccc1OC(C)C(=O)Nc1ccc(N2CCCCC2)cc1 (centres undefined) | 2.7 (≈ 7.33 µM)
O=C(CSc1nc2ccccc2c(=O)[nH]1)Nc1ccc([N+](=O)[O-])cc1 | 5 (≈ 14 µM)
CCc1ccccc1NC(=O)COC(=O)c1c(C)nsc1NC | 1.9 (≈ 5.7 µM)
CSc1nsc(NC(=O)OCc2ccc(Cl)cc2)n1 | 8.4 (≈ 26.6 µM)
O=C(/C=C/c1ccccc1)Oc1cccc(C(=S)N2CCOCC2)c1 | 4.6 (≈ 13 µM)
Cl.Nc1ccc(Oc2cc(N)cc(Oc3ccccc3)c2)cc1 | 30.1
S=c1nc(Cc2ccccc2)[nH]c2ccccc12 | 2.4 (≈ 9.51 µM)
Brc1ccsc1-c1csc(-c2ccncc2)n1 | 2.7 (≈ 8.35 µM)

SMILES | solubility kinetic [µg/mL]
COc1ccnc2c1c(=O)n(Cc1c(F)cccc1Cl)c(=O)n2C | 9.8 (≈ 28 µM)
Cn1ccnc1SCC(=O)Nc1ccc2c(c1)OCCO2 | > 45.8
COc1ccc(-c2cc(C(=O)Nc3ccc(OC)c(OC)c3)no2)cc1 | < 0.4
O=C(Cc1ccc([N+](=O)[O-])cc1)N1CCN(Cc2ccc3c(c2)OCO3)CC1 | 46.4 (≈ 121 µM)
O=S(=O)(c1ccc(-c2cc(C(F)(F)F)on2)s1)N1CCCC1 | 1 (≈ 2.84 µM)
COC(=O)c1cc(C(=O)OC)cc(-n2c(C)cc(C=O)c2C)c1 | 35.8 (≈ 114 µM)
Cc1cc(-c2onc(C)c2C(=O)Nc2ccc(C(F)(F)F)cc2)no1 | < 0.3
Cc1oc(S(=O)(=O)N2CCCC2)cc1C(=O)Nc1ccccc1 | 4.3 (≈ 12.9 µM)
O=C1OCCC1Sc1nnc(-c2ccco2)n1-c1ccccc1 (centres undefined) | > 49.1
CC1CC(C)CN(C(=O)COC(=O)Cc2ccc(Cl)cc2)C1 (centres undefined) | 41.3 (≈ 128 µM)
Cc1ccc(NC(=O)COC(=O)C2CC2)cc1S(=O)(=O)N1CCOCC1 | > 57.4
Cc1ccc(S(=O)(=O)Nc2ccccc2N2CCOCC2)cc1 | 0.8 (≈ 2.41 µM)
COc1cc(OC)c(C(=O)Nc2ccncc2)cc1OC | 42.6 (≈ 148 µM)
Cc1cc(NC(=O)c2cc(-c3ccc(Br)cc3)on2)no1 | 3 (≈ 8.62 µM)
Cc1cc(Cl)ccc1OCCCC(=O)NCCCn1ccnc1 | > 50.4
O=C(NC1(C(F)(F)F)OCCO1)c1ccc(F)cc1 | 32.9 (≈ 118 µM)
CCOC(=O)c1sc2nc(C)nc(NCc3ccccc3)c2c1C | 0.3 (≈ 0.879 µM)

Results, then the molecule that gave them:

solubility kinetic [µg/mL] | SMILES
0.9 (≈ 2.79 µM) | CCOc1ccc2[nH]cc(C(=O)NCc3ccccc3)c(=O)c2c1
20.7 (≈ 43.3 µM) | Cc1ccc(S(=O)(=O)N2CCCCC2)cc1NC(=O)CN1C(=O)c2ccccc2S1(=O)=O
> 39.2 | COc1ccc(CN2C(=O)C(C)=C(C)C2OC)cc1 (centres undefined)
7.4 (≈ 15.2 µM) | O=C(COC(=O)c1cc(S(=O)(=O)N2CCOCC2)ccc1F)Nc1cc([N+](=O)[O-])ccc1F
32.8 (≈ 148 µM) | Nc1ncnc(Nc2ccccc2Cl)n1
19.5 (≈ 65.6 µM) | Cc1ccc2c(c1)CCCN2C(=O)CSc1ccccc1
> 40.2 | CNc1nc(N)c([N+](=O)[O-])c(NCC2CCCO2)n1 (centres undefined)
7.6 (≈ 27.3 µM) | COc1cc2[nH]c(=S)n(C3CC3)c(=O)c2cc1OC
2.4 (≈ 6.75 µM) | N/C(CC(=O)Nc1ccc(F)c(Cl)c1)=N\OC(=O)c1cccs1
> 49.7 | Cn1c(SCC(=O)NC2CCCCC2)nnc1-c1ccccn1
> 45.5 | O=C(Nc1nnc(C2CC2)s1)C1COc2ccccc2O1 (centres undefined)
1.3 (≈ 4.62 µM) | C=CCOc1ccc(C2NC(=O)c3ccccc3O2)cc1 (centres undefined)
> 52.4 | CCNC(=O)CC1C(=O)N(c2ccc(OC)cc2)C(=O)N1CCOC (centres undefined)
3.8 (≈ 11.7 µM) | CC(C)(C)c1ccc(-c2noc(CNC(=O)c3ccco3)n2)cc1
5.5 (≈ 20 µM) | Cn1c(/C(C#N)=C/c2ccc(O)cc2)nc2ccccc21
0.3 (≈ 0.97 µM) | Cc1cc(C)c(OCC(=O)Nc2nc3ccccc3[nH]2)c(C)c1
2.8 (≈ 11.7 µM) | c1ccc(CSc2cc3ccccc3[nH]2)cc1
0.5 (≈ 1.72 µM) | Cc1ccc(C(=O)Nc2c(C)cc(C)c3cccnc23)cc1
3.4 (≈ 10.6 µM) | COc1ccccc1Nc1nc(NCCO)nc(N)c1[N+](=O)[O-]
41.5 (≈ 146 µM) | CC(Oc1ccc(Cl)cc1)C(=O)NCC1CCCO1 (centres undefined)
36.2 (≈ 136 µM) | Cc1ccc(NC(=O)N2CCCc3ccccc32)cc1
35.9 (≈ 103 µM) | CCOC(=O)C1=C(c2ccccc2)OC(N)=C(C#N)C1c1cccnc1 (centres undefined)
1.9 (≈ 5.43 µM) | CC(C)=C1SC(N2CCN(c3ccc(C)c(Cl)c3)CC2)=NC1=O
44 | CCOCCCNCc1cc(Cl)cc(Cl)c1OCC.Cl

From PubChem BioAssay AID1996
